Legend:
barnyardgrass [1] = test: Test A preemergence; assay type: in vivo, Echinochloa crus-galli; settings: 0 to 100 scale
Summary of the method: (§1)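 Greenhouse test in loam soil/sand blend; compounds formulated in non-phytotoxic solvent with surfactant, applied as preemergence directed soil spray or postemergence to plants 2–10 cm tall at one- to two-leaf stage. Injury rated visually versus untreated controls after approximately 10 days on a 0 (no effect) to 100 (complete control) scale.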

crabgrass, large [2] = test: Test A preemergence; assay type: in vivo, Digitaria sanguinalis; settings: 0 to 100 scale
Summary of the method: as §1

foxtail, giant [3] = test: Test A preemergence; assay type: in vivo, Setaria faberii; settings: 0 to 100 scale
Summary of the method: as §1

morningglory [4] = test: Test A preemergence; assay type: in vivo, Ipomoea spp.; settings: 0 to 100 scale
Summary of the method: as §1

pigweed [5] = test: Test A preemergence; assay type: in vivo, Amaranthus retroflexus; settings: 0 to 100 scale
Summary of the method: as §1

velvetleaf [6] = test: Test A preemergence; assay type: in vivo, Abutilon theophrasti; settings: 0 to 100 scale
Summary of the method: as §1

wheat [7] = test: Test A preemergence; assay type: in vivo, Triticum aestivum; settings: 0 to 100 scale
Summary of the method: as §1

corn [8] = test: Test A preemergence; assay type: in vivo, Zea mays; settings: 0 to 100 scale
Summary of the method: as §1

barnyardgrass [9] = test: Test A postemergence; assay type: in vivo, Echinochloa crus-galli; settings: Postemergence
Summary of the method: as §1

crabgrass, large [10] = test: Test A postemergence; assay type: in vivo, Digitaria sanguinalis
Summary of the method: as §1

foxtail, giant [11] = test: Test A postemergence; assay type: in vivo, Setaria faberii
Summary of the method: as §1

morningglory [12] = test: Test A postemergence; assay type: in vivo, Ipomoea spp.
Summary of the method: as §1

pigweed [13] = test: Test A postemergence; assay type: in vivo, Amaranthus retroflexus
Summary of the method: as §1

velvetleaf [14] = test: Test A postemergence; assay type: in vivo, Abutilon theophrasti
Summary of the method: as §1

wheat [15] = test: Test A postemergence; assay type: in vivo, Triticum aestivum
Summary of the method: as §1

corn [16] = test: Test A postemergence; assay type: in vivo, Zea mays
Summary of the method: as §1

[17] = Preemergence, 1000 g ai/ha, 0 no effect, 100 complete control
[18] = 1000 g ai/ha, visual rating after approx. 10 days, 0 to 100 scale (0 no effect, 100 complete control)
[19] = Postemergence, 1000 g ai/ha, visual rating after approx. 10 days, 0 to 100 scale (0 no effect, 100 complete control)
[20] = Preemergence, 500 g ai/ha, 0 no effect, 100 complete control
[21] = preemergence, 125 g ai/ha, visual injury, approx. 10 days
[22] = 125 g ai/ha, 0 to 100 scale, 0 no effect, 100 complete control
[23] = 500 g ai/ha, visual rating after approx. 10 days, 0 to 100 scale (0 no effect, 100 complete control)
[24] = Postemergence, 500 g ai/ha, visual rating after approx. 10 days, 0 to 100 scale (0 no effect, 100 complete control)
[25] = postemergence, 125 g ai/ha, about 10 days, visual rating on 0 to 100 scale (0 no effect, 100 complete control)

CCc1cc(C(=O)NC(C)C)nn1Cc1cccc(C(F)(F)F)c1 [Compound 47]
Barnyardgrass plant response rating (barnyardgrass [1]; [17]): 80 | Crabgrass, Large plant response rating (crabgrass, large [2]; [17]): 100 | Foxtail, Giant plant response rating (foxtail, giant [3]; [17]): 100 | Morningglory plant response rating (morningglory [4]; [17]): 90 | Pigweed plant response rating (pigweed [5]; [17]): 80 | Velvetleaf plant response rating (velvetleaf [6]; [17]): 60 | Wheat plant response rating (wheat [7]; [17]): 50 | Corn plant response rating (corn [8]; [17]): 40 | Barnyardgrass plant response rating (barnyardgrass [9]; [18]): 60 | Crabgrass, Large plant response rating (crabgrass, large [10]; [19]): 70 | Foxtail, Giant plant response rating (foxtail, giant [11]; [19]): 80 | Morningglory plant response rating (morningglory [12]; [19]): 100 | Pigweed plant response rating (pigweed [13]; [19]): 70 | Velvetleaf plant response rating (velvetleaf [14]; [19]): 60 | Wheat plant response rating (wheat [15]; [19]): 40 | Corn plant response rating (corn [16]; [19]): 40

Cc1cc(C(=O)NCC(F)(F)C(F)(F)F)nn1Cc1cccc(OC(F)(F)F)c1 [Compound 6]
Barnyardgrass plant response rating (barnyardgrass [1]; [20]): 0 | Barnyardgrass plant response rating (barnyardgrass [1]; [21]): 0 | Crabgrass, Large plant response rating (crabgrass, large [2]; [20]): 20 | Crabgrass, Large plant response rating (crabgrass, large [2]; [21]): 0 | Foxtail, Giant plant response rating (foxtail, giant [3]; [20]): 20 | Foxtail, Giant plant response rating (foxtail, giant [3]; [21]): 0 | Morningglory plant response rating (morningglory [4]; [20]): 0 | Morningglory plant response rating (morningglory [4]; [21]): 0 | Pigweed plant response rating (pigweed [5]; [20]): 50 | Pigweed plant response rating (pigweed [5]; [21]): 30 | Velvetleaf plant response rating (velvetleaf [6]; [20]): 0 | Velvetleaf plant response rating (velvetleaf [6]; [21]): 0 | Wheat plant response rating (wheat [7]; [21]): 0 | Corn plant response rating (corn [8]; [20]): 0 | Corn plant response rating (corn [8]; [21]): 0 | Barnyardgrass plant response rating (barnyardgrass [9]; [22]): 0 | Barnyardgrass plant response rating (barnyardgrass [9]; [23]): 10 | Crabgrass, Large plant response rating (crabgrass, large [10]; [24]): 30 | Crabgrass, Large plant response rating (crabgrass, large [10]; [25]): 10 | Foxtail, Giant plant response rating (foxtail, giant [11]; [24]): 20 | Foxtail, Giant plant response rating (foxtail, giant [11]; [25]): 10 | Morningglory plant response rating (morningglory [12]; [24]): 60 | Morningglory plant response rating (morningglory [12]; [25]): 30 | Pigweed plant response rating (pigweed [13]; [24]): 60 | Pigweed plant response rating (pigweed [13]; [25]): 50 | Velvetleaf plant response rating (velvetleaf [14]; [24]): 40 | Velvetleaf plant response rating (velvetleaf [14]; [25]): 10 | Wheat plant response rating (wheat [15]; [24]): 0 | Wheat plant response rating (wheat [15]; [25]): 0 | Corn plant response rating (corn [16]; [24]): 0 | Corn plant response rating (corn [16]; [25]): 0

CCc1cc(C(=O)N(C)CC)nn1Cc1cccc(C(F)(F)F)c1 [Compound 42]
Barnyardgrass plant response rating (barnyardgrass [1]; [17]): 0 | Crabgrass, Large plant response rating (crabgrass, large [2]; [17]): 40 | Foxtail, Giant plant response rating (foxtail, giant [3]; [17]): 30 | Morningglory plant response rating (morningglory [4]; [17]): 30 | Pigweed plant response rating (pigweed [5]; [17]): 10 | Velvetleaf plant response rating (velvetleaf [6]; [17]): 0 | Wheat plant response rating (wheat [7]; [17]): 0 | Corn plant response rating (corn [8]; [17]): 0 | Barnyardgrass plant response rating (barnyardgrass [9]; [18]): 20 | Crabgrass, Large plant response rating (crabgrass, large [10]; [19]): 50 | Foxtail, Giant plant response rating (foxtail, giant [11]; [19]): 30 | Morningglory plant response rating (morningglory [12]; [19]): 60 | Pigweed plant response rating (pigweed [13]; [19]): 60 | Velvetleaf plant response rating (velvetleaf [14]; [19]): 40 | Wheat plant response rating (wheat [15]; [19]): 0 | Corn plant response rating (corn [16]; [19]): 30

CCCNC(=O)c1cc(C2CC2)n(Cc2cccc(OC(F)(F)F)c2)n1 [Compound 38]
Barnyardgrass plant response rating (barnyardgrass [1]; [17]): 0 | Crabgrass, Large plant response rating (crabgrass, large [2]; [17]): 20 | Foxtail, Giant plant response rating (foxtail, giant [3]; [17]): 0 | Morningglory plant response rating (morningglory [4]; [17]): 0 | Pigweed plant response rating (pigweed [5]; [17]): 0 | Velvetleaf plant response rating (velvetleaf [6]; [17]): 0 | Wheat plant response rating (wheat [7]; [17]): 0 | Corn plant response rating (corn [8]; [17]): 0 | Barnyardgrass plant response rating (barnyardgrass [9]; [18]): 10 | Crabgrass, Large plant response rating (crabgrass, large [10]; [19]): 10 | Foxtail, Giant plant response rating (foxtail, giant [11]; [19]): 10 | Morningglory plant response rating (morningglory [12]; [19]): 100 | Pigweed plant response rating (pigweed [13]; [19]): 40 | Velvetleaf plant response rating (velvetleaf [14]; [19]): 50 | Wheat plant response rating (wheat [15]; [19]): 0 | Corn plant response rating (corn [16]; [19]): 30

Cc1cc(C(=O)NCC(F)(F)F)nn1Cc1cccc(C(F)(F)F)c1 [Compound 7]
Barnyardgrass plant response rating (barnyardgrass [1]; [20]): 40 | Barnyardgrass plant response rating (barnyardgrass [1]; [21]): 0 | Crabgrass, Large plant response rating (crabgrass, large [2]; [20]): 90 | Foxtail, Giant plant response rating (foxtail, giant [3]; [20]): 70 | Foxtail, Giant plant response rating (foxtail, giant [3]; [21]): 10 | Morningglory plant response rating (morningglory [4]; [20]): 40 | Morningglory plant response rating (morningglory [4]; [21]): 0 | Pigweed plant response rating (pigweed [5]; [20]): 90 | Pigweed plant response rating (pigweed [5]; [21]): 0 | Velvetleaf plant response rating (velvetleaf [6]; [20]): 10 | Velvetleaf plant response rating (velvetleaf [6]; [21]): 0 | Wheat plant response rating (wheat [7]; [21]): 0 | Corn plant response rating (corn [8]; [20]): 10 | Corn plant response rating (corn [8]; [21]): 0 | Barnyardgrass plant response rating (barnyardgrass [9]; [22]): 0 | Barnyardgrass plant response rating (barnyardgrass [9]; [23]): 30 | Crabgrass, Large plant response rating (crabgrass, large [10]; [24]): 40 | Crabgrass, Large plant response rating (crabgrass, large [10]; [25]): 10 | Foxtail, Giant plant response rating (foxtail, giant [11]; [24]): 30 | Foxtail, Giant plant response rating (foxtail, giant [11]; [25]): 0 | Morningglory plant response rating (morningglory [12]; [24]): 100 | Morningglory plant response rating (morningglory [12]; [25]): 40 | Pigweed plant response rating (pigweed [13]; [24]): 50 | Pigweed plant response rating (pigweed [13]; [25]): 30 | Velvetleaf plant response rating (velvetleaf [14]; [24]): 40 | Velvetleaf plant response rating (velvetleaf [14]; [25]): 30 | Wheat plant response rating (wheat [15]; [24]): 20 | Wheat plant response rating (wheat [15]; [25]): 0 | Corn plant response rating (corn [16]; [24]): 30 | Corn plant response rating (corn [16]; [25]): 10
